Assay results taken from paper PMC10619443, “Structural snapshots of Mycobacterium tuberculosis enolase reveal dual mode of 2PG binding and its implication in enzyme catalysis” (IUCrJ, 2023).

Target: T1, MtEno (Mycobacterium tuberculosis, UniProt P9WNL1)
T1 construct: gene eno
T1 sequence (P9WNL1 whole entry): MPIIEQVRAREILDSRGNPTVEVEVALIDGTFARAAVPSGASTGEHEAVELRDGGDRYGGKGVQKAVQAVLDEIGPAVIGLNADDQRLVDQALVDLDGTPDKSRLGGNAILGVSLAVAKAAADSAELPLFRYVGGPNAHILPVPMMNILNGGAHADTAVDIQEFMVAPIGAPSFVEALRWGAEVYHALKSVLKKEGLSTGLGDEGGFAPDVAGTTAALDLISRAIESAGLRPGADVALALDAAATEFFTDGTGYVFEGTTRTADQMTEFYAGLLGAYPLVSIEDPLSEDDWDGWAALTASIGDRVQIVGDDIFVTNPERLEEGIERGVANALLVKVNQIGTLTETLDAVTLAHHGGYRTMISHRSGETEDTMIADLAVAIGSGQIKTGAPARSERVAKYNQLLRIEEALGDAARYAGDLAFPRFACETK

With `O=C(O)[C@@H](CO)OP(=O)(O)O` [2PG, 2-phosphoglycerate] the X-ray crystal structure was “Of the two structures of MtEno-2PG, one harbored the 2PG-canonical pose”.
